Experiments:
naïve CD4+ T cells [1] = test: Th17 cell in vitro differentiation of naïve CD4+ T cells (flow cytometry of IL-17); type: cell-based, mouse; details: sphinganine 5 μM, three days
Method: FIG. 4. Sphinganine promoted the Treg cell in vitro generation and suppressed the inflammatory Th17 cell formation. The YFP-negative CD4^+non-Treg naïve T cells were FACS-sorted (1 ×10^5 cells in 250 μl complete medium) from the Foxp3Cre-YFP mice. The naive T cells were activated with the anti-CD3 and anti-CD28 for three days, in the presence or absence of cytokine TGFβ (5 ng/ml) and IL-2 (10 ng/ml) for Treg cells and TGFβ (5 ng/ml), IL-6 (20 ng/ml) and anti-IFNy (10 μg/ml) for Th17 cells. A: flow cytometry analysis of Foxp3 protein expression after induction of Treg cell formation with sphinganine (5 μM) in the presence of cytokine TGFβ (5 ng/ml) or vehicle control DMSO (no TGFβ). B: Flow cytometry analysis of IL-17 protein expression after induction of Th17 cell formation with TGFβ (5 ng/ml), IL-6 (20 ng/ml) and anti-IFNy (10 μg/ml) in the presence or absence of sphinganine (5 μM). C: Flow cytometry analysis of Foxp3 protein expression after induction of Treg cell formation in the presence of TGFβ (5 ng/ml) and L- serine (5 μM), 3-KDS (5 μM), shinganine (5 μM), dihydroceramide (50 nM), ceramide (50 nM), sphingosine (1 μM), sphingosine-1-phosphate (1 μM), shinganine-1-phosphate (1 μM), or vehicle control DMSO (TGFβ only). […]
(§1) Flow Cytometry. […] Samples were run on the LSR II and analyzed using the Flowjo software (FlowJo, LLC, BD). […]

EAE mice = test: EAE mouse model for multiple sclerosis (MOG35-55 immunization), clinical scoring; type: in vivo; details: C57BL/6 mice, sphinganine 1000 μg/kg body weight intraperitoneally, one injection every two days, day 1 to day 15, FIG. 5
Method: EAE induction and monitoring. Each mouse was subcutaneously immunized with 200 μg MOG35-55 peptide emulsified in Freund's Complete Adjuvant. Pertussis toxin (400 ng per mouse) was injected intraperitoneally. Where indicated, mice were intraperitoneally injected with sphinganine (every other day from the day of immunization to the end of the experiments). EAE symptoms were scored every day using the following scoring standard: 0, no sign; 1, limp tail; 2, paraparesis (incomplete paralysis of 1 or 2 hind limbs); 3, paraplegia (complete paralysis of 2 hind limbs); 4, paraplegia with forelimb weakness or paralysis; 5, moribund state or death. For the mouse welfare reason, we sacrificed the mice if the score reached 3. […] C57BL/6 mice were subcutaneously immunized with 200 μg MOG35-55 peptide emulsified in Freund's Complete Adjuvant to induce EAE development. Pertussis toxin (400 ng per mouse) was injected intraperitoneally. Mice were intraperitoneally injected with sphinganine (1000 μg/kg body weight, one injection every two days, from day 1 to day 15). EAE symptoms were scored every day.

naïve CD4+ T cells [2] = test: Treg cell in vitro differentiation of naïve CD4+ T cells (flow cytometry of Foxp3); type: cell-based, mouse; details: sphinganine 5 μM, three days; for Foxp3 protein expression: anti-CD3, anti-CD28, TGFβ 5 ng/ml, IL-2 10 ng/ml, vs vehicle DMSO, FIG. 4A/4C
Method: FIG. 4. Sphinganine promoted the Treg cell in vitro generation and suppressed the inflammatory Th17 cell formation. The YFP-negative CD4^+non-Treg naïve T cells were FACS-sorted (1 ×10^5 cells in 250 μl complete medium) from the Foxp3Cre-YFP mice. The naive T cells were activated with the anti-CD3 and anti-CD28 for three days, in the presence or absence of cytokine TGFβ (5 ng/ml) and IL-2 (10 ng/ml) for Treg cells and TGFβ (5 ng/ml), IL-6 (20 ng/ml) and anti-IFNy (10 μg/ml) for Th17 cells. A: flow cytometry analysis of Foxp3 protein expression after induction of Treg cell formation with sphinganine (5 μM) in the presence of cytokine TGFβ (5 ng/ml) or vehicle control DMSO (no TGFβ). B: Flow cytometry analysis of IL-17 protein expression after induction of Th17 cell formation with TGFβ (5 ng/ml), IL-6 (20 ng/ml) and anti-IFNy (10 μg/ml) in the presence or absence of sphinganine (5 μM). C: Flow cytometry analysis of Foxp3 protein expression after induction of Treg cell formation in the presence of TGFβ (5 ng/ml) and L- serine (5 μM), 3-KDS (5 μM), shinganine (5 μM), dihydroceramide (50 nM), ceramide (50 nM), sphingosine (1 μM), sphingosine-1-phosphate (1 μM), shinganine-1-phosphate (1 μM), or vehicle control DMSO (TGFβ only). D: Structures of sphingolipids, as indicated, and sphingolipid biosynthetic pathway are depicted. The numbers in each FACS plot show the percentages of the indicated cell population within the total population of cells shown in the FACS plot.
Mouse primary T cell culture. Complete medium was used for cell culture and was prepared by supplementing RPMI 1640 plain medium with 10% fetal calf serum, penicillin/streptomycin antibiotics and non-essential amino acids. For Treg and Th17 cell in vitro differentiation, naïve splenic T cells were purified from the Sptic2^+/+Foxp3Cre-YFP wild type mice using the flow cytometry sorter. […]
as §1

Compound: CCCCCCCCCCCCCCC[C@@H](O)[C@@H](N)CO [sphinganine]
- IL-17 production / IL-17 protein expression (naïve CD4+ T cells [1]; Th17 cell-differentiation condition: TGFβ 5 ng/ml, IL-6 20 ng/ml, anti-IFNy 10 μg/ml, FIG. 4B): reduced
- inflammatory Th17 cell formation (naïve CD4+ T cells [1]; TGFβ, IL-6, anti-IFNy): suppressed
- EAE clinical scores / EAE development (EAE mice): reduced
- EAE clinical scores / EAE development (EAE mice; listed as Sphinganine): ameliorated EAE development
- Treg cell in vitro generation / Treg cell formation (naïve CD4+ T cells [2]; Treg cell-inducing condition (anti-CD3, anti-CD28, TGFβ, IL-2)): promoted
- Foxp3 protein expression (naïve CD4+ T cells [2]): increase
- Foxp3 protein expression (naïve CD4+ T cells [2]; listed as Sphinganine): further increased
